# Measurements taken from PMC11558128 (Advanced Science, 2024).
# Positions of bridges follow the written chain, without caps; N, C: chain ends. Residues, ends and D or L forms follow the SMILES beside them.
# Key:
# [1] = tested on: other Kv channels (hKv1.1-1.5, rKv2.1, hKv3.1-3.4, mKv4.1, hKv7.2 and hERG)
# hNav1.7 = target: T1, hNav1.7 (Homo sapiens, UniProt Q15858); parameters: method as in 2 sources, one per row (each row's own in cited_ref): ref 11c (a number printed in a supplementary file, which may have a reference list of its own: not looked up in the article's list) ||| ref 11c = [11]; PMID 27129258; doi:10.1074/jbc.M116.725978; 11 a) G. L. Adams , P. S. Pall , S. M. Grauer , X. Zhou , J. E. Ballard , M. Vavrek , R. L. Kraus , P. Morissette , N. Li , S. Colarusso , E. Bianchi , A. Palani , R. Klein , C. T. John , D. Wang , M.; conditions: vs HNTX-III; ref 11c; cited from earlier work
# T1 construct: expressed in transfected cells; host or cells: HEK293T
# T1 sequence (O60939 30-215): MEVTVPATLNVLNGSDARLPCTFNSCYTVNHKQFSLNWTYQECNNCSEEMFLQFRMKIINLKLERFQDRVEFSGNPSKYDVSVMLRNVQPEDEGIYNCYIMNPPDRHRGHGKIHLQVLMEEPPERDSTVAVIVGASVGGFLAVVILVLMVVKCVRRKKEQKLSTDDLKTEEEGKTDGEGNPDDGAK
# T1 sequence (Q15858 other isoform, or with tags, fused parts or gaps): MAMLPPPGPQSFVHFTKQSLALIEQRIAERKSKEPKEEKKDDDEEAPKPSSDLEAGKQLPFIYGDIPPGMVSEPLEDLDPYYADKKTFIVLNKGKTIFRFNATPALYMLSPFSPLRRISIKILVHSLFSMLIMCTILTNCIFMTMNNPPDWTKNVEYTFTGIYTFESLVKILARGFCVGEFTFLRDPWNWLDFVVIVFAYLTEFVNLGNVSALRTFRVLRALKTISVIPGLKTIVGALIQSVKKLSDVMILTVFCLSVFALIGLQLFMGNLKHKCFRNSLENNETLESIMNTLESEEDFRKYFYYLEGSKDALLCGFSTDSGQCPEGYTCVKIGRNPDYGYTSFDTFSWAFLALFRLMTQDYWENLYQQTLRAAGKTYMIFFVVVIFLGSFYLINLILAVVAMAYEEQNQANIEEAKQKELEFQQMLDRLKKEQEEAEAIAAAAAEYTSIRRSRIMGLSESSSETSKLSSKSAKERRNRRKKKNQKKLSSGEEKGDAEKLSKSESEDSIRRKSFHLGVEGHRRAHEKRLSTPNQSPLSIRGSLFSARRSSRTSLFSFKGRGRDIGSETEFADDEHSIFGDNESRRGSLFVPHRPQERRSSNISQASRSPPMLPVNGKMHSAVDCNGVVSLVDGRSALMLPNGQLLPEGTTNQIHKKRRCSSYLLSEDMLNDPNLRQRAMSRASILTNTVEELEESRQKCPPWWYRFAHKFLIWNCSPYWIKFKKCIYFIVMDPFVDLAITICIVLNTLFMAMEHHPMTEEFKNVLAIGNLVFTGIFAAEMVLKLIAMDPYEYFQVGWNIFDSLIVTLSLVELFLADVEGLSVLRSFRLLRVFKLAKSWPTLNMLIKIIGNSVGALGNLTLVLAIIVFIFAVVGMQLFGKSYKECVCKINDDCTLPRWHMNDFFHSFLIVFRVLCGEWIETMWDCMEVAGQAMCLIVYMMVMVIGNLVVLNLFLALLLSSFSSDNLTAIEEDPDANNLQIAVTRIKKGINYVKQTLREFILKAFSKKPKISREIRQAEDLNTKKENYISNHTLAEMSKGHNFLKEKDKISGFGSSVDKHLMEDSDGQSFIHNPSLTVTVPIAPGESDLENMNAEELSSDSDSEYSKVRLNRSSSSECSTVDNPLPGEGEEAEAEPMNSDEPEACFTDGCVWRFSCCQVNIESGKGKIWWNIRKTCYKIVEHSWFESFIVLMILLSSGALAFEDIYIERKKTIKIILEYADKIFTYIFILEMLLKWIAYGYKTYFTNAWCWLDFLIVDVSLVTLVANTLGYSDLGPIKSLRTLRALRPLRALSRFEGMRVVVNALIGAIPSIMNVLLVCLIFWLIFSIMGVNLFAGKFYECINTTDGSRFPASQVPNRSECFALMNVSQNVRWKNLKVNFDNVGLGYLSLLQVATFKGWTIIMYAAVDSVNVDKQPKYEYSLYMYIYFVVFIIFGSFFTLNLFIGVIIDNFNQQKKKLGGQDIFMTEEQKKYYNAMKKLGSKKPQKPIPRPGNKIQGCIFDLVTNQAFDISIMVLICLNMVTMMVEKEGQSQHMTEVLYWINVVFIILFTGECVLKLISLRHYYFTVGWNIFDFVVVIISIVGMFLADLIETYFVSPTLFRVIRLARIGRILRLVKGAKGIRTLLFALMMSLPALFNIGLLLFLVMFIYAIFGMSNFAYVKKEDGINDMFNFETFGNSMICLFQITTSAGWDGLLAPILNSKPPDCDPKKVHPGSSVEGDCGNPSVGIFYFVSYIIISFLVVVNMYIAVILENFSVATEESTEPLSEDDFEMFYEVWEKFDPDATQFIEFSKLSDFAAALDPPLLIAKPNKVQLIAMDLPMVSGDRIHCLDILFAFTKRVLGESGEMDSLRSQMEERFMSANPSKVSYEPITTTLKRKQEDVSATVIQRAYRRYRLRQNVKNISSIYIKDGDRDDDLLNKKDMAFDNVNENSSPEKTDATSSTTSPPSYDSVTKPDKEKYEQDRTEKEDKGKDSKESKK
# T1 sequence (Q07699 19-218, further chain): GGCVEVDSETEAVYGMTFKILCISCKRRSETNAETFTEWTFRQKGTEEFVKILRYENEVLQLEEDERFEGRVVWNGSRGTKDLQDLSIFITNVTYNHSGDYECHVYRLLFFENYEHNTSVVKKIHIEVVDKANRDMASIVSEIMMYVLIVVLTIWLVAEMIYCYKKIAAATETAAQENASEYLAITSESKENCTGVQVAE
# rKv4.3 = target: T2, rKv4.3 (Rattus norvegicus, UniProt Q62897); test: cell-based; conditions: vs HNTX-III
# T2 construct: expressed in transfected cells; host or cells: HEK293T
# T2 sequence (Q62897 1-655): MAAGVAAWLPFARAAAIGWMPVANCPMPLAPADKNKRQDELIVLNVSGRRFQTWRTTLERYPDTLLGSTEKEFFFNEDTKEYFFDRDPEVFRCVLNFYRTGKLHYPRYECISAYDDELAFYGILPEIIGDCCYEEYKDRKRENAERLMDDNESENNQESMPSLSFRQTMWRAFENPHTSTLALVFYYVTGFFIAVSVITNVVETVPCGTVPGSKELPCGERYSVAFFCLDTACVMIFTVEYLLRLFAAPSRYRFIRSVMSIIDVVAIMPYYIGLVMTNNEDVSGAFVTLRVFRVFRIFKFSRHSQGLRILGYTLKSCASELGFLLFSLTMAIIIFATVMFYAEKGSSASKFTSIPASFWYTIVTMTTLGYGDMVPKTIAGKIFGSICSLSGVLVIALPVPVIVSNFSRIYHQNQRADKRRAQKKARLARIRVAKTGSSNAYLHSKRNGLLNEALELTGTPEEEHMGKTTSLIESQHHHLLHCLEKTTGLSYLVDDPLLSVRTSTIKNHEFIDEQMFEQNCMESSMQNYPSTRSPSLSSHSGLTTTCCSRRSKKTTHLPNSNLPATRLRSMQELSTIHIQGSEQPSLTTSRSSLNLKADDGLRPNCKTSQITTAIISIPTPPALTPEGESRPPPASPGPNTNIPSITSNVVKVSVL
# C57BL/6 mice [2] = test: CFA-induced inflammatory pain model (von Frey paw withdrawal threshold); conditions: mouse, in vivo
# Description: In the Complete Freund's adjuvant (CFA)–induced inflammatory pain modelinflammation is induced by injecting 15 µL of CFA into the intraplantar surface of the right hind paw of C57BL/6 mice (weight 18–20 g, 6–8 weeks, both sex).^[ [38] ^] Mechanical paw withdrawal thresholds are then measured using manual von Frey (Stoelting Co) after 2 days of CFA injection.
# C57BL/6 mice [3] = test: Spared nerve injury (SNI) neuropathic pain model; conditions: mouse, in vivo, ip
# Description: In the spared nerve injury (SNI) neuropathic pain model,^[ [39] ^] C57BL/6 mice (weight 18–20 g, 6–8 weeks, both sex) were anesthetized with 3% halothane. The thigh was incised parallel to the femur, and the muscles were bluntly separated to expose the sciatic nerve. The sciatic nerve is ligated with 6.0 silk sutures. […] The paw withdrawal threshold to mechanical stimuli is measured between 0 and 180 min after drug administration.
smiles,measurement,setting,value
"CC[C@H](C)[C@H](NC(=O)[C@H](CCCCN)NC(=O)[C@H](Cc1ccc(O)cc1)NC(=O)[C@H](CCCCN)NC(=O)[C@@H]1CSSC[C@@H]2NC(=O)[C@H](CCC(=O)O)NC(=O)[C@H](CC(=O)O)NC(=O)[C@H](CCCCN)NC(=O)CNC(=O)[C@@H]3CCCN3C(=O)[C@H]([C@@H](C)O)NC(=O)[C@@H]3CSSC[C@H](NC(=O)[C@H](C(C)C)NC(=O)[C@H](Cc4c[nH]cn4)NC(=O)[C@H](CC(N)=O)NC(=O)[C@@H]4CCCN4C(=O)[C@H](CSSC[C@H](NC(=O)[C@H](C)N)C(=O)N[C@@H](CCCCN)C(=O)NCC(=O)N[C@@H]([C@@H](C)CC)C(=O)N[C@@H](Cc4ccccc4)C(=O)N[C@@H](C(C)C)C(=O)N[C@@H]([C@@H](C)O)C(=O)N3)NC2=O)C(=O)N[C@@H](CO)C(=O)N[C@@H](CO)C(=O)N[C@@H](CCCCN)C(=O)N[C@@H](Cc2c[nH]cn2)C(=O)N[C@@H](CCCCN)C(=O)N[C@@H](Cc2c[nH]c3ccccc23)C(=O)N1)C(N)=O [Cl6b] (H-ACKGIFVTCTPGKDECCPNHVCSSKHKWCKYKI-NH2; disulfide 2-17, 9-22, 16-29)",effect on the current traces of other Kv channels,[1],no obvious or only minimal effect
"CC(C)C[C@@H]1NC(=O)[C@H](Cc2ccc(O)cc2)NC(=O)[C@H](CC(N)=O)NC(=O)[C@H](CCCCN)NC(=O)[C@@H]2CSSC[C@H](NC(=O)CNC(=O)[C@@H](N)CCCCN)C(=O)N[C@@H](CCCCN)C(=O)NCC(=O)N[C@@H](Cc3ccccc3)C(=O)NCC(=O)N[C@@H](CC(=O)O)C(=O)N[C@@H](CO)C(=O)N[C@H]3CSSC[C@H](NC1=O)C(=O)N[C@@H](CO)C(=O)N[C@@H](CO)C(=O)N[C@@H](CCCCN)C(=O)N[C@@H](Cc1c[nH]cn1)C(=O)N[C@@H](CCCCN)C(=O)N[C@@H](Cc1c[nH]c4ccccc14)C(=O)N[C@H](C(=O)N[C@@H](CCCCN)C(=O)N[C@H](C(=O)N[C@@H](Cc1ccc(O)cc1)C(=O)N[C@@H](CC(C)C)C(=O)N[C@H](C(N)=O)C(C)C)C(C)C)CSSC[C@H](NC(=O)[C@H](CCC(=O)O)NC(=O)[C@H](CC(N)=O)NC(=O)[C@H](CCCCN)NC(=O)CNC(=O)[C@@H]1CCCN1C(=O)[C@H]([C@@H](C)O)NC3=O)C(=O)N2 [HNTX-III-H4] (H-KGCKGFGDSCTPGKNECCKNYLCSSKHKWCKVYLV-NH2; disulfide 3-18, 10-23, 17-30; N-terminus and C-terminus assumed)",improved potency on hNav1.7 currents,hNav1.7,30 fold
same,improved potency for rKv4.3,rKv4.3,45 fold
CN1CC[C@]23c4c5ccc(O)c4O[C@H]2[C@@H](O)C=C[C@H]3[C@H]1C5 [morphine],"duration of anti-allodynic effect, CFA model",C57BL/6 mice [2],2 h
same,mechanical allodynia induced by SNI compared with the saline group,C57BL/6 mice [3],significantly decreased
